The values that follow are results of earlier work, collected in patent US10934504B2, “Laundry treatment compositions comprising perfume and silica microparticles” (Conopco, Inc., priority 2016, dated 2021).

For this series the following is noted: values taken from the Good Scents website.

Regarding `CC(=O)c1cc2c(cc1C)C(C)(C)C(C)CC2(C)C` (stereo not drawn) [Tonalid], the logKow is on record as 4.8.

Take `CC(=O)OC1CC2CC1C1CC=CC21` (stereo not drawn) [Verdyl acetate]: the logKow is given as 2.2.

Regarding `CC(=O)OC(C)(C)Cc1ccccc1` [Dimethyl benzyl carbinyl acetate], the logKow was 2.7.

On to `CCCC(C)C(=O)OCC` (stereo not drawn) [Manzanate], for which the logKow is listed as 2.4.

Take `CCCCCCCCCC(C)C=O` (stereo not drawn) [C12 Aldehyde MNA]: the logKow was 4.9.

Turning to `CC(=O)OCc1ccccc1` [Benzyl acetate], the logKow is reported as 2.0.

For `c1ccc(CCOC2CCCCC2)cc1` [Phenafleur], the logKow is on record as 3.8.

On to `CCCCCCOC(=O)c1ccccc1O` [n-Hexyl salicylate], for which the logKow was 5.7.

Consider `C=C(C)[C@H]1CC=C(C)CC1` [Limonene], for which the logKow is listed as 3.4.

With `CC(C=O)Cc1ccc(C(C)(C)C)cc1` (stereo not drawn) [Lilial], the logKow was 3.6.

`CC(=O)/C=C/C1=C(C)CCCC1(C)C` [β-Ionone]: the logKow is 2.9.

Turning to `C=CC(C)CCCC(C)(C)O` (stereo not drawn) [Dihydromyrcenol], the logKow was 2.9.
